Results on one compound are retold here after patent publication US12458637B2, “Targeting WNK1 in blood cancers” (Københavns Universitet, priority 2019, dated 2025).

Usually IC50 stands for the midpoint of a concentration-inhibition curve. As usually defined, the EC50 is the midpoint of the concentration-response curve.

Data set [1] concerns MA9 cells. As to the kind of experiment: CellTiter-Glo viability assay, MA9 cells. It counts as cell-based. The conditions noted are these: Mus musculus, 72 hours. The protocol: (§1) Dose-response curves were generated using the CellTiter-Glo® assay (Promega: G7570). Cells were seeded in triplicate in round bottom 96 well plates in the presence of varying concentrations of “Compound 12”. After 72 hours the number of viable cells in the cultures were measured using the CellTiter-Glo®. IC50 values were calculated using the Prism software (GraphPad: Prism 7 for Mac OS X).
(ATP-based viability assays read luminescence as a measure of living cells.)

A further data set relates to MEFs. As to the kind of experiment: CellTiter-Glo viability assay, mouse embryonic fibroblasts. It counts as cell-based. The procedure: as §1
The next data set has as its system blood cancer cell lines. The experiment in a line: CellTiter-Glo viability assay, human cell lines. It counts as cell-based. The note with it: FIG. 5. The procedure:
Dose-response curves were generated using the CellTiter-Glo® assay (Promega: G7570). BJ-tert, U2OS, MOLM13, THP1, Monomac, MMS1, KMS18, KMS11, MSTo, and H226, cells were seeded in triplicate in round bottom 96 well plates in the presence of varying concentrations of “Compound 12”. After 72 hours the number of viable cells in the cultures were measured using the CellTiter-Glo®. IC50 values were calculated using the Prism software (GraphPad: Prism 7 for Mac OS X). The experiment show the IC50 values for the different human cell lines (FIG. 5).

In a further data set the test system is WNK1 (P-OXSR1). As to the kind of experiment: Western blot of Oxsr1 and P-Oxsr1 in MA9 cells. It counts as cell-based, mouse. The conditions noted are these: MA9 cells treated for 3 hours. The procedure: Murine MLL-AF9 transformed leukemic cells (MA9) were treated for 3 hours with different concentrations of “Compound 12”. Treated cells were counted and lysed in 1×LSB buffer and an equal to 100.000 cells were loaded on each lane of a 10% SDS-Page gel.
Gels were transferred to nitrocellulose membranes probed with sheep-anti-OXSR1 [S336B] or sheep-anti-P-OXSR1 [S688B] (both from University of Dundee). Binding of the primary antibody was on detected light sensitive films, using rabbit peroxidase conjugated anti-sheep IgG antibody (1 in 30.000 dilution, Abcam: ab6900) followed by enhanced chemiluminescence (Pierce ECL Plus, ThermoFisher: 34577) (FIG. 4B).
(In western blotting, separated proteins are transferred to a membrane and probed.)

In data set [2] the test system is MA9 cells. The experiment in a line: Growth curves of MA9 cells. Type of data set: cell-based, mouse. The note with it: varying concentrations, growth curve, FIG. 4C. The protocol: MA9 cell cultures were grown in triplicate in 24 well plates in the presence of varying concentrations of “Compound 12”. Cells were plated with a density of 50.000 cells per well after which they were counted and replated every 3 days.

The test system of data set [3] is MLL-AF9 translocated leukemia. The experiment in a line: In vivo treatment of leukemic mice (MA9 transplanted). More on the design: species or system mouse. The conditions noted are these: daily injection of 1.8 mg in sun flower oil, mice transplanted with MA9 cells. The protocol: 1×10^4 leukemic cells were injected into the tail vein of sub-lethally irradiated (450 rad) BL6.SJL mice. Two days after transplantation the mice were injected with 1.8 mg “Compound 12” dissolved into 200 μL sun flower oil or sun flower oil alone (control). A total of 26 mice were used in the experiment, where 14 received oil alone and 12 received “Compound 12”.
The injections were continued daily for a period of 20 days.

In the next data set the test system is phosphorylated OXSR1. The conditions noted are these: in cells, Yamada et al., 2017; cited from earlier work.
The next data set deals with blood pressure. The note with it: 30 mg/kg single oral dose, rodent hypertension models; cited from earlier work.
For data set [4] the following is noted: 30 mg/kg single oral dose; cited from earlier work.
The conditions of data set [5]: Yamada et al., 2017; cited from earlier work.

Entries after “also recorded” stand apart in the source; their conditions may differ. A value given as a limit tells only on which side of the number the result lay.

As for `[2H]C([2H])([2H])Nc1nc(-c2cc(C(=O)N3CCN(Cc4ccc(Cl)cc4)CC3)c(Cl)cn2)cs1` [Compound 12, (5-Chloro-2-(2-((methyl-d3)amino)thiazol-4-yl)-pyridin-4-yl)(4-(4-chlorobenzyl)piperazin-1-yl)methanone], the IC50 in the data set with MA9 cells [1] was approximately 1 µM; in the data set on MEFs (Mus musculus, Fibroblast, viability, 72 hours, CellTiter-Glo), more than 20 µM; with blood cancer cell lines (viability, 72 hours, human cell lines, read-out: IC50 of most of the blood cancer cell lines), approximately 1 µM. Further, the “IC50 in MEFs compared with MA9 cells” value in the data set with MEFs (viability assay, FIG. 4A) is on record as “significantly higher”. In addition, the “Sensitivity of blood cancer cell lines compared with diploid fibroblasts” value with blood cancer cell lines (human cell lines vs BJ tert) was “significantly more sensitive”. Also, the “Inhibition of WNK1 (phosphorylated OXSR1, Western blot)” value in the data set with WNK1 (P-OXSR1) was “inhibits WNK1 in leukemic cells”. In addition, in the data set on MA9 cells [2], the “Growth / proliferation of MA9 cells” value is “dose-dependent inhibition; also recorded: inhibits growth; also recorded: attenuated growth”. Further, in data set [3], the “Lifespan of leukemic mice” value is “significantly extend the life-time; also recorded: increases their lifespan; also recorded: increased lifespan”. In addition, the half-maximal effective concentration (EC50) in the data set on phosphorylated OXSR1 is 0.59 µM. In addition, the Blood pressure result in the data set on blood pressure is “some reduction in blood pressure”. In addition, in data set [4], the Concentration is 2000 nM. The Toxicity in mice entry in [5] is “low toxicity”.
